According to patent US10987349B2, “Antitumor agent and bromodomain inhibitor” (FUJIFILM Corporation, priority 2016, dated 2021):

Experiments:
[1] = tested on: human prostate cancer cell line VCaP; assay: Cell growth test (Cell Titer Blue) VCaP; assay type: cell-based; conditions: 72 h, 3 days
Protocol: (§1) Moreover, the compound of Example 14 was subjected to a cell growth test using various types of cell lines.
(§2) All cell lines other than the below-noticed cells were each seeded in a well plate, in which an RPMI-1640 medium supplemented with penicillin/streptomycin and FBS with a final concentration of 10% was placed. The human prostate cancer cell line VCaP (ATCC) was seeded in a well plate, in which DMEM medium supplemented with penicillin/streptomycin and FBS with a final concentration of 10% was placed. […] Thereafter, using Enspire Multimode Plate Reader (PerkinElmer), the amount of fluorescence at an excitation wavelength of 531 nm and a fluorescence wavelength of 615 nm was measured. Since the amount of fluorescence is in proportion to the concentration of a florescent product resorufin that is converted from resazurin as a redox dye by living cells, the amount of fluorescence was used as an indicator of the number of living cells. The growth inhibition percentage of the test compound in each concentration was calculated according to the following equation. Growth inhibition percentage (%)=(amount of fluorescence in test compound−added well)/(amount of fluorescence in DMSO−added well)×100 […]

K-562 = assay: Cell growth test (Cell Titer Blue) K-562; assay type: cell-based; conditions: Homo sapiens, K562, 72 h, K-562, Chronic myeloid leukemia, 3 days
Protocol: as §1, §2

KG-1A = assay: Cell growth test (Cell Titer Blue) KG-1A; assay type: cell-based; conditions: Homo sapiens, 72 h, Acute myeloid leukemia, 3 days
Protocol: as §1, §2

MCF-7 = assay: Cell growth test (Cell Titer Blue) MCF-7; assay type: cell-based; conditions: Homo sapiens, MCF7, 72 h, MCF-7, Breast cancer, 3 days
Protocol: as §1, §2

NOMO-1 = assay: Cell growth test (Cell Titer Blue) NOMO-1; assay type: cell-based; conditions: Homo sapiens, 72 h, NOMO-1, Acute myeloid leukemia, 3 days
Protocol: as §1, §2

SU-DHL-4 = assay: Cell growth test (Cell Titer Blue) SU-DHL-4; assay type: cell-based; conditions: Homo sapiens, 72 h, SU-DHL-4, Lymphoma, 3 days
Protocol: as §1, §2

SK-HEP-1 = assay: Cell growth test (Cell Titer Blue) SK-HEP-1; assay type: cell-based; conditions: Homo sapiens, SK-HEP1, 72 h, SK-HEP-1, Liver cancer, 3 days
Protocol: as §1, §2

NCI-H522 = assay: Cell growth test (Cell Titer Blue) NCI-H522; assay type: cell-based; conditions: Homo sapiens, 72 h, NCI-H522, Lung cancer, 3 days
Protocol: as §1, §2

HOP-62 = assay: Cell growth test (Cell Titer Blue) HOP-62; assay type: cell-based; conditions: Homo sapiens, 72 h, HOP-62, Lung cancer, 3 days
Protocol: as §1, §2

KG-1 = assay: Cell growth test (Cell Titer Blue) KG-1; assay type: cell-based; conditions: Homo sapiens, 72 h, KG-1, Acute myeloid leukemia, 3 days
Protocol: as §1, §2

[2] = Intravenous administration toxicity test on rats; assay type: in vivo, rat
Protocol: With reference to the above-described findings, the compound of the present example was administered to rats via repeated intravenous administration, and the influence of the compound on the body weight and the digestive tract was then evaluated.
The compound of Example 14 was dissolved in a solvent (a normal saline containing 1 equivalent of hydrochloric acid), and the obtained solution was then intravenously administered to 6-week-old male SD rats (Charles River Laboratories Japan) at a dose of 30 to 60 mg/kg, once a day, for 7 days. As a negative control, a solvent administration group involving administration of a normal saline was established. At the time of the final administration, the plasma concentration of the compound of Example 14 was measured. […] Moreover, a weight reduction was not observed during the administration period. Furthermore, on the day following the final administration, pathological evaluation was carried out.

NCI-H1299 = assay: Cell growth test (Cell Titer Blue) NCI-H1299; assay type: cell-based; conditions: Homo sapiens, 72 h, NCI-H1299, Lung cancer, 3 days
Protocol: as §1, §2

MDA-MB-435 = assay: Cell growth test (Cell Titer Blue) MDA-MB-435; assay type: cell-based; conditions: Homo sapiens, 72 h, MDA-MB-435, Melanoma, 3 days
Protocol: as §1, §2

c-Myc gene = assay: Intratumoral expression of c-Myc gene in MV4-11-subcutaneously-transplanted cancer-bearing mouse models, RT-PCR; assay type: in vivo; conditions: 30 mg/kg
Protocol: According to an RT-PCR method, a fluctuation in the intratumoral expression of a c-Myc gene in MV4-11-subcutaneously-transplanted cancer-bearing mouse models, to which a test compound had been administered, was analyzed.
The compound of Example 14 was dissolved in a solvent (a 0.5% methyl cellulose aqueous solution or water containing 1 equivalent of hydrochloric acid), and the obtained solution was then orally administered to the mice at a dose of 30 mg/kg. As a negative control, a solvent administration group (vehicle) involving administration of a 0.5% methyl cellulose aqueous solution was established. Moreover, the test compound was dissolved in a solvent (a normal saline containing 1 equivalent of hydrochloric acid), and the obtained solution was then intravenously administered to the mice at a dose of 30 mg/kg. As a negative control, a solvent administration group (vehicle) involving administration of a normal saline was established. From MV4-11-subcutaneously-transplanted cancer-bearing mice involving oral or intravenous administration of the test compound, tumor was excised 1, 3, 6 and 24 hours (hr) after the administration. […] A PCR reaction was carried out by the same method as that of Test Example 5, and a fluctuation in the gene expression of GAPDH and c-Myc in the tumor was then evaluated.

[3] = male SD rats, intravenously 30 to 60 mg/kg, once a day, 7 days

Question: Which results are given for `CCn1c(=O)cc(C2CCN(C)CC2)c2cc(C(=O)N(C)c3ccc(C)cc3)ccc21` [Example 14, 1-Ethyl-N-methyl-N-(4-methylphenyl)-4-(1-methylpiperidin-4-yl)-2-oxo-1,2-dihydroquinoline-6-carboxamide]?
Answer: GI50 [1]: 361 nM; GI50 (K-562): 17 nM; GI50 (KG-1A): 119 nM; GI50 (MCF-7): 689 nM; GI50 (NOMO-1): 62 nM; GI50 (SU-DHL-4): 49 nM; GI50 (SK-HEP-1): 2500 nM; GI50 (NCI-H522): 155 nM; GI50 (HOP-62): 143 nM; GI50 (KG-1): 57 nM; plasma concentration at the time of the final administration [2, 3]: increased in proportion to the applied dose; weight reduction during the administration period [2, 3]: not observed; pathological evaluation of gastrointestinal epithelial cells including gastrointestinal epithelial stem cells ([2]; male SD rats, intravenously 30 to 60 mg/kg, once a day, 7 days, day following the final administration): no disorders were found; AUC without weight reduction relative to the AUC upon intravenous administration in Test Example 3 ([2]; rats, intravenous): 3.8 times; GI50 (NCI-H1299): 422 nM; GI50 (MDA-MB-435): 2780 nM; intratumoral expression of the c-Myc gene (c-Myc gene; intravenously, tumor excised 1, 3, 6 and 24 hr after administration (FIG. 4)): decreased; intratumoral expression of the c-Myc gene (c-Myc gene; orally, tumor excised 1, 3, 6 and 24 hr after administration (FIG. 5)): decreased
